Like-named read-outs stand apart in the source and are kept apart here.
How the values were obtained:
human P2X4 receptor [1] = target: human P2X4 receptor; parameters: method as in ref 10.1016/j.heliyon.2023.e21265; details: SPR competition assay; ref 10.1016/j.heliyon.2023.e21265; read-out: Potency (IC50 value) at the human P2X4 receptor; cited from earlier work
rat P2X4 receptors = tested on: rat P2X4 receptors; parameters: method as in not given; details: ref not given; cited from earlier work
human P2X4 receptor [2] = target: human P2X4 receptor; parameters: method as in https://doi.org/10.1124/mol.114.096222; details: patch clamp, HEK293; ref https://doi.org/10.1124/mol.114.096222; read-out: Potency (IC50 value) at the human P2X4 receptor; cited from earlier work
mouse P2X4 receptors = tested on: mouse P2X4 receptors; parameters: method as in not given; details: ref not given; cited from earlier work
[3] = parameters: method as in not given; details: rebuttal comparison table; ref not given; cited from earlier work
human wt P2X4 receptor = target: T1, human wt P2X4 receptor (Homo sapiens, UniProt Q99571); assay: Homologous competition binding vs [35S]ATPγS, 1321N1 astrocytoma cell membranes; details: 0.2 nM [35S]ATPγS, 1321N1 membranes
T1 construct: expressed in transfected cells
T1 sequence (Q99571 1-388): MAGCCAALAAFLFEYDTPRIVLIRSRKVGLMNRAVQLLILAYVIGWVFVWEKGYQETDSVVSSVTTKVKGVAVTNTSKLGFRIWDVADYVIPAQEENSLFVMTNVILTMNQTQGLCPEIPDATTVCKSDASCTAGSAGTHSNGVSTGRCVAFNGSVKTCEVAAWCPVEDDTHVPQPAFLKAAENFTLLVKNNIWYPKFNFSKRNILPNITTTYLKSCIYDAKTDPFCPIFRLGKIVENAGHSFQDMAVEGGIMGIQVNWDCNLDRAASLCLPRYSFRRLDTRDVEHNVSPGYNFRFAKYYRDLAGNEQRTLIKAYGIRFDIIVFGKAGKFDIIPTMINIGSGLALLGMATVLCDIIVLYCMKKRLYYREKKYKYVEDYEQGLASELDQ
Procedure: (§1) Radioligand binding studies were performed according to a published procedure. […] After an incubation of 1 h at room temperature, the incubation was terminated by rapid vacuum filtration through GF/B glass fiber filters using a Brandel 48-well harvester (Brandel). The filters were rinsed three times with ice-cold Tris-HCl buffer (50 mM, pH 7.4, 3-4 mL each) to separate unbound from bound radioligand. After punching out the filters and transferring them into scintillation vials, scintillation cocktail (2.5 mL, Ultima Gold®) was added. The samples were measured after 6 h of preincubation using a liquid scintillation counter for 1 min each. All data from calcium influx assays and radioligand binding studies were analyzed using Microsoft Excel. […] KD and Bmax values from radioligand binding assays were calculated by using the “one site-homologous” equation, implemented in GraphPad Prism version 8.0. The level of significance was calculated by a one-way ANOVA with Dunnett's post hoc test, in case there was a control group, and multiple comparison was required. […] The significance levels were defined as follows: *P < 0.05, **P < 0.01, ***P < 0.001, ****P < 0.0001.

[4] = target: T2, human solubilized and purified P2X4-E307T receptor mutant reconstituted into nanodiscs (Homo sapiens, UniProt Q99571, E307T/N184R/N75R); assay: Homologous competition binding vs [35S]ATPγS, purified P2X4-E307T receptor in nanodiscs; details: 0.2 nM [35S]ATPγS; P2X4-E307T construct in nanodiscs
T2 construct: The full-length human P2X4 receptor gene was subcloned into the pFastBac1 vector; Rho1D4 (fused by GSSG linker) (C); GSSG linker + human rhinovirus 3C protease site + 10x-His (C); made in house; host or cells: Sf9 insect cells (baculovirus)
Procedure: as §1

human P2X4 receptor [5] = tested on: human P2X4 receptor; parameters: method as in not given; details: assay and ref not given; cited from earlier work
[6] = parameters: method as in not given; details: ref not given; cited from earlier work

T2 sequence (Q99571 whole entry N75R/N184R/E307T, the tested form may be a part): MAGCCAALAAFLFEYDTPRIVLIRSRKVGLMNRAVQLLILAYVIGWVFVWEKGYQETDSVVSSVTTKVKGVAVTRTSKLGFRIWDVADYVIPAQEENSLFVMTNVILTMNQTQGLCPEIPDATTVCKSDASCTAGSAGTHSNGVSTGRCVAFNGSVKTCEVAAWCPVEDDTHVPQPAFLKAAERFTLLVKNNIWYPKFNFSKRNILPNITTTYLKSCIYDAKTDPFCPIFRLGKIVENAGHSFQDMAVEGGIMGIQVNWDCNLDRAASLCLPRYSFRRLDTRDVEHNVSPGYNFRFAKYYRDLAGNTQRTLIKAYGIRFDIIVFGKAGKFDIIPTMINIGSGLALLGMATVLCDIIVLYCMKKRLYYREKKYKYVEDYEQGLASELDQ

In the case of `CC(C)c1cc(Br)c(NC(=O)Nc2cccnc2)c(Br)c1` [BX430], the IC50 (human P2X4 receptor [1]) is listed as 4.5 µM, the “Potency at rat compared with human P2X4 receptors” value (rat P2X4 receptors) is listed as “significantly weaker” and the IC50 (human P2X4 receptor [2]) is listed as 540 nM. For the same compound, the “Potency at mouse compared with human P2X4 receptors” value (mouse P2X4 receptors) was “significantly weaker” and the Lipophilicity [3] was “Lipophilic”.
In the case of `Nc1ncnc2c1ncn2[C@@H]1O[C@H](CO[P@](=O)(O)O[P@](=O)(O)O[P@@](=O)(O)S)[C@@H](O)[C@H]1O` [ATPγS], the Kd (human wt P2X4 receptor) is reported as 14.1 ± 2.7 nM and the “Dissociation constant (KD value)” value [4] is reported as 6.01 ± 0.81 nM.
In the case of `NS(=O)(=O)c1cc(NC(=O)Cc2ccccc2)ccc1Oc1cccc(Cl)c1` [BAY-1797, N-4-(3-chlorophenoxy)-3-sulfamoylphenyl-2-phenylacetamide], the “Extent of receptor inhibition (no complete inhibition)” value (human P2X4 receptor [5]) is listed as “about 80%” and the Oral bioavailability [6] is listed as “orally bioavailable”.

— publication PMC12678798, “Discovery of an allosteric binding site for anthraquinones at the human P2X4 receptor” (Nature Communications, 2025)
